Data taken from patent publication US11160788B2, “Caspase-1 inhibition and uses thereof for prevention and treatment of neurological conditions” (priority 2016, dated 2021).

Key:
J20 mice [1] = assay: GFAP astrogliosis, treated symptomatic J20 mice brains; format: in vivo, mouse; conditions: 50 mg/kg
Description: FIG. 18: ELISA measures of cytokines in vehicle-treated WT and J20 mice and VX-765-treated J20 mice. (a) Plasma levels of II-1β in mice after T3. (b) Cytokine levels in vehicle-treated WT and J20 and in VX-765-treated J20 brain hippocampi and cortex. (c) GFAP immunostaining density in vehicle-treated WT (n=6) and J20 (n=5) and in VX-765-treated J20 (n=4) brain hippocampi (F(2,12)=5.234, p=0.0232, ANOVA, Dunnett's post-hoc compared to WT+Vehicle, *p<0.05) and cortex. (d) Western blots and quantitative analyses of GFAP in vehicle-treated WT and J20 and in VX-765-treated J20 brain hippocampi and cortex.
To assess AD-like pathology, immunohistochemical analyses were performed to detect amyloid deposition (anti-AβF25276)^5,6, microglial (Iba1) activation^7, astrogliosis (GFAP), synaptophysin protein levels on coronal brain sections. Multiplex MSD ELISA was used to assess Aβ levels and 38,40, and 42 subtypes, and II-1β brain levels. RT-PCR was used to assess levels of human APP^Sw/Ind.

J20 mice [2] = assay: NOR, preventive treatment of pre-symptomatic J20 mice; format: in vivo, mouse
Experimental: FIG. 22: Novel object recognition behavioral assay to assess episodic memory in J20 mice. Mice were treated with vehicle (WT and J20) or 50 mg/kg VX-765 (J20) at 2 months of age for 1 month (3 injections per week×4 weeks=12 injections). (a) Schematic representation of the manner in which the studies were carried out. (b) Discrimination index indicates the number of touches of the novel object minus the number of touches of the familiar object divided by the number of total touches for both objects. Two-way ANOVA (F(2,240)=75.62, p<0.0001) with Dunnett's compared to the J20+vehicle. * p<0.05, **** p<0.0001 (c) % mice impaired in NOR in each group of mice tested at the different time points.
Studies are done on 8 (pre-symptomatic) week old J20 and littermate WT controls injected with 50 mg/Kg VX-765 or vehicle. The 8 week old mice are injected for 4 weeks (3 injections per week) and monitored for memory deficits at 16 weeks of age and every 4 weeks thereafter until the mice reach 8 months of age. VX-765 delays the onset of cognitive deficits by at least 5 months in the J20 mouse.
To determine if VX-765 can delay the appearance of AD-like cognitive deficits and pathology in the J20 mice, J20 mice were injected 3 times per week for 4 weeks starting at 2 months of age. We started NOR tests at 4 months of age, after 1 month without drug, and retested every month thereafter until 8 months of age (FIG. 3). […] At 8 months of age, only 1 of 3 mice have NOR deficit resulting in an averaged normal behavior. Since we sacrificed 2 mice per group at 4, 5, and 6 months and 3 mice per group at 7 and 8 months, note that the results of the older groups need more experimental data for solid conclusions.
(§1) We directly tested whether pre-symptomatic inhibition of inflammation in a mouse genetic model of Alzheimer disease can stem the progression of memory and behavioral deficits, and Alzheimer disease-like pathology. The J20 amyloid precursor protein Swedish/Indiana mutant mouse was treated at 2 months of age for a one month period with 50 mg/Kg Caspase-1 inhibitor VX-765 (FIG. 22a).

[3] = system: CNS primary human neurons (HPN); assay: MTT assay in primary human neurons; format: cell-based; conditions: 25, 50, 100, or 200 μM for 72 hours
Experimental: FIG. 13: VX-765 protects CNS primary human neurons (HPN) against APP- or serum deprivation-mediated neuritic beading. (a) MTT assay with increasing dose of VX-765. (b) Fluorescent micrographs showing homogeneous distribution of EGFP in normal neurons and neuritic beading in APP-transfected neurons. (c) Percentage beading in APP-transfected or serum-deprived neurons treated 1 h before and continuously with stressor (Pre-treatment) or 48 h after stressor (post-beading treatment) with 25 or 50 μM VX-765 or with 5 μM Z-YVAD-fmk Casp1 peptide inhibitor. […] (d-e) HPN secreted or cellular Aβ42/total Aβ38+40+42 (d) (F(3,4)=12.73, p=0.0163, ANOVA, Dunnett's post-hoc compared to Serum+DMSO, *p<0.05), and (e) levels of secreted II-1β, IFN-γ, TNF-α, and II-6 from untreated (+S), serum deprived (−S), or serum-deprived human neurons treated with 25 or 50 μM VX-765.
To determine if VX-765 can protect human neurons against neurodegeneration, VX-765 was assessed in primary human fetal CNS neuron cultures. Treatment of HPN with 25, 50, 100, or 200 μM VX-765 for 72 hours was not toxic (FIG. 13a). […] HPN were pre-treated with VX-765 for 1 h before APP transfection and treatment continued thereafter. […] To assess if neuritic beading was reversible, VX-765 was administered 48 hours after APP^WT transfection or serum deprivation.

human Casp2 to 10 = assay: Selectivity against human Casp2 to 10; format: biochemical; conditions: recombinant caspases
Experimental: FIG. 14: Selectivity and blood brain permeability of VX-765 and VRT-043198. (a-b) IC50 of VX-765 (a) and VRT-043198 (b) against human Casp1-10. (c-d) IC50 of VX-765 (c) and VRT-043198 (d) against mouse Casp1 and Casp11. (e) Blood brain barrier permeability and presence of VX-765 and VRT-043198 in 3 wild type and 4 J20 mice brain cortex and hippocampus and in plasma. Ratios of brain levels to plasma levels are calculated.

J20 mice [4] = assay: Barnes maze, preventive treatment of pre-symptomatic J20 mice; format: in vivo, mouse
Description: FIG. 23: Barnes maze to assess spatial memory in J20 mice. Barnes maze tested at washout at (a-c) 12 week (6 months of age) and (d-f) 20 week (8 months of age). (a,d) Learning to find the escape hatch over 4 days in seconds. (b,e) Primary latency to reach the escape hatch and primary errors to find the hatch. In (b) One-way ANOVA (F(2,29)=5.948, p=0.0068), in (e) One-way ANOVA (F(2,22)=7.2545, p=0.0038) followed by Dunnett's pot-hoc *p<0.05, ** p<0.01. (c,f) Probe test: number of pokes for each of the 20 holes of the Barnes maze when hatch hole is blocked. T indicates target hole where hatch was accessible during training.
as §1

With `CCO[C@@H]1OC(=O)C[C@@H]1NC(=O)[C@@H]1CCCN1C(=O)[C@@H](NC(=O)c1ccc(N)c(Cl)c1)C(C)(C)C` [VX-765, (S)-1-((S)-2-{[1-(4-amino-3-chloro-phenyl)-methanoyl]-amino}-3,3-dimethyl-butanoyl)-pyrrolidine-2-carboxylic acid ((2R,3S)-2-ethoxy-5-oxo-tetrahydro-furan-3-yl)-amide] the “GFAP astrogliosis in cortex and hippocampus” value (J20 mice [1]; after Treatment 3) was “almost returned to WT levels”, the GFAP in cortex (J20 mice [1]; densitometry, 12 injections) was “reduced in VX-765-treated J20 cortex, but the data did not reach statistical significance” and the “delay of the onset of cognitive deficits” value (J20 mice [2]; 50 mg/Kg, 3 injections per week for 4 weeks from 8 weeks of age) was “at least 5 months”. For the same compound, the NOR performance (J20 mice [2]; 4, 5 and 6 months of age (1, 2, 3 month washout)) was “perform normally on NOR”, the “mice that developed NOR deficits” value (J20 mice [2]; 7 months of age (4 month washout)) was 3 out of 6 and the “mice with NOR deficit” value (J20 mice [2]; 8 months of age) was 1 of 3. For the same compound, the NOR discrimination index (J20 mice [2]; after 16 and 20 week washout) was “lower performance although they are still performing better than vehicle-treated J20 mice”, the NOR discrimination index (J20 mice [2]; average, each washout time point (4 to 20 weeks)) was “perform like the WT mice” and the “percentage of mice impaired in NOR” value (J20 mice [2]; each washout time point) was “does not differ significantly from vehicle-treated WT mice”. For the same compound, the “toxicity (MTT assay)” value [3] was “not toxic”, the “inhibition of human Casp1 relative to human Casp2 to 10” value (human Casp2 to 10) was “potently and specifically inhibited” and the “Barnes maze ability to distinguish the target area” value (J20 mice [4]; 12-week washout) was “better ability to distinguish the target area”. For the same compound, the “Barnes maze primary errors” value (J20 mice [4]; 12-week washout) was “corrected this deficit”, the “Barnes maze primary latency” value (J20 mice [4]; 12-week washout (6 months of age)) was “tended towards a better performance” and the “Barnes maze identifying the target area in probe test” value (J20 mice [4]; 20-week washout) was “performed better than the Vehicle-treated J20 mice”. For the same compound, the “Barnes maze learning phase” value (J20 mice [4]; 20-week washout) was “performed normally in the learning phase” and the “Barnes maze primary latency and primary errors” value (J20 mice [4]; 20-week washout) was “did not reach statistical significance”.
